Assay results taken from article PMC8698672, “Selective Anticancer and Antimicrobial Metallodrugs Based on Gold(III) Dithiocarbamate Complexes” (Biomedicines, 2021).

Tests used:
[1] = system: Acinetobacter baumannii (Ab); test: Antibacterial MIC assay (CO-ADD); format: cell-based; conditions: 18 h, 37 °C, inhibition ≥ 80%
Protocol: (§1) The antimicrobial assays were performed according to the protocols of the Community for Open Antimicrobial Drug Discovery (CO-ADD). […] All the sample preparation was done using liquid-handling robots.
(§2) The antibacterial activity of all synthesized complexes was evaluated in five different pathogenic bacteria, including methicillin-resistant Staphylococcus aureus (Sa), Escherichia coli (Ec), Klebsiella pneumonia (Kp), Psedomonas aeruginosa (Pa), and Acinetobacter baumannii (Ab). All bacteria were cultured in cation-adjusted Mueller Hinton Broth (CAMHB) at 37 °C overnight. A sample of each culture was then diluted 40-fold in fresh broth and incubated at 37 °C for 1.5–3 h. The resultant mid-log phase cultures were diluted (CFU/mL measured by OD600), then added to each well of the complexes containing plates, giving a cell density of 5 × 10^5 CFU/mL and a total volume of 50 μL. All the plates were covered and incubated at 37 °C for 18 h without shaking. The inhibition of bacterial growth was determined by measuring the absorbance at 600 nm (OD600) using a Tecan M1000 Pro monochromator plate reader (Männedorf, Switzerland). The percentage of growth inhibition was calculated for each well, using the negative control (media only) and positive control (bacteria without inhibitors) on the same plate as references. […]

[2] = system: Psedomonas aeruginosa (Pa); test: Antibacterial MIC assay (CO-ADD); format: cell-based; conditions: 18 h, 37 °C, inhibition ≥ 80%
Protocol: as §1, §2

Escherichia coli (Ec) = test: Antibacterial MIC assay (CO-ADD); format: cell-based; conditions: 18 h, 37 °C, inhibition ≥ 80%
Protocol: as §1, §2

Caco-2/TC7 normal cells = test: MTT cell viability, normal (differentiated) Caco-2/TC7 cells (15 days after seeding); format: cell-based, human; conditions: Caco-2/TC7, 15 days after seeding, 72 h incubation
Protocol: (§3) This study was conducted in the human enterocyte-like cell line Caco-2/TC7 [44]. This cell line undergoes a process of spontaneous differentiation in culture that leads to the formation of a monolayer of cells, expressing the morphological and functional characteristics of the mature enterocytes. This differentiation process is growth-dependent, where the cells undergo differentiation from “undifferentiated proliferative crypt-type cells” in the exponential phase of growth, to “differentiated enterocyte-type cells” in the stationary phase. The cell culture of Caco-2/TC7 cells (passages 30–50) was performed according to a previously reported method.
(§4) Cell survival was measured using the MTT test. The assay depends on the cellular reduction of 3-(4,5-dimethylthiazol-2-yl)-2,5-diphenyltetrazolium bromide (MTT, Sigma-Aldrich, Madrid, Spain) by the mitochondrial dehydrogenase of viable cells to a blue formazan product that can be measured spectrophotometrically, as previously described.
(§5) The in vitro cytotoxic effect was evaluated on human colon cancer cell line Caco-2/TC7. This particular cell line presents a huge advantage for toxicity studies because of its spontaneous enterocytic-like differentiation when confluence is reached. Therefore, Caco-2 cells become polarized cells expressing apical and basolateral surfaces with well-established tight junctions. Thus, cells present noncarcinogenic behavior in the confluence and the cytotoxic effect of our complexes can be performed on differentiated cells to evaluate the selectivity toward tumor cells. For the antiproliferative studies, MTT assay was performed after 72 h of exposure to different concentrations of the complexes at two different stages of confluence, five days to evaluate the effect on tumor cells (Figure S7) and 15 days for normal cells (Figure S8).

Candida albicans (Ca) = test: Antifungal MIC assay (CO-ADD); format: cell-based; conditions: 36 h, 35 °C, inhibition ≥ 80%
Protocol: as §1
(§6) The antifungal activity of all synthesized complexes was evaluated in two different fungi, Candida albicans (Ca) and Cryptococcus neoformans (Cn). Fungi strains were cultured for 3 days on yeast extract–peptone–dextrose (YPD) agar at 30 °C. A yeast suspension of 1 × 10^6 to 5 × 10^6 CFU/mL (as determined by OD530) was prepared from five colonies. The suspension was subsequently diluted and added to each well of the complex-containing plates, giving a final cell density of fungus suspension of 2.5 × 10^3 CFU/mL and a total volume of 50 μL. All plates were covered and incubated at 35 °C for 36 h without shaking. […] The absorbance was measured using a Biotek Multiflo Synergy HTX plate reader (Winooski, VT, USA). In both cases, the percentage of growth inhibition was calculated for each well, using the negative control (media only) and positive control (fungi without inhibitors) on the same plate. […] Due to a higher variance in growth and inhibition, a lower threshold was applied to the data for C. neoformans.

[3] = system: Cryptococcus neoformans (Cn); test: Antifungal MIC assay (CO-ADD); format: cell-based; conditions: 36 h, 35 °C, inhibition ≥ 70%
Protocol: as §1, §6

Caco-2/TC7 tumor cells = test: MTT cell viability, tumor Caco-2/TC7 cells (5 days after seeding); format: cell-based, human; conditions: for IC50: Caco-2/TC7, 5 days after seeding, 72 h incubation, MTT; for Tumor Cells Selectivity over Normal Cells: ratio of IC50 normal / tumor Caco-2/TC7 cells
Protocol: as §3, §4, §5

Caco-2 cells = test: Cell cycle analysis, PI staining flow cytometry; format: cell-based, human; conditions: 20 μM, 24 h
Protocol: After incubation with the complexes, the cells were collected, washed twice with PBS, fixed in 70% ice-cold ethanol, and stored at 4 °C for 24 h. After centrifugation, cells were resuspended in PBS containing PI (50 μg/mL) and RNase A (100 μg/mL). After incubation for 30 min at RT in the dark, PI-stained cells were analyzed for DNA content in a Gallios Flow Cytometer (Beckman Coulter). […] Cell cycle distribution was determined on a linear scale. The percentage of cells in cycle phases was determined using the Kaluza Analysis Software (Beckman Coulter).
To stop the uncontrolled replication of tumor cells is still one of the main aims in the chemotherapy field; thus, arresting the tumor cell cycle in as many stages as possible is considered crucial. […] As is known, the geometry and structure of the complex have a great impact on the action mechanism of the drug, so there are examples of gold(III) complexes that alter the cell cycle at the G0/G1 phase, but also others at G2/M phase.
Figure 5 Cell population (%) in each stage of the cell cycle obtained by flow cytometry after 24 h of incubation of the cells with DMSO (control) and gold(III) complexes 1, 5, and 6 (20 μM).

Compound	MIC Ab [1] [µg/mL]	MIC Pa [2] [µg/mL]	MIC Ec (Escherichia coli (Ec)) [µg/mL]	IC50 (Caco-2/TC7 normal cells) [µM]	MIC Ca (Candida albicans (Ca)) [µg/mL]	MIC Cn [3] [µg/mL]	IC50 (Caco-2/TC7 tumor cells) [µM]	Tumor Cells Selectivity over Normal Cells (Caco-2/TC7 tumor cells)	effect on cell cycle (cells in G0/G1, S, G2/M phases) vs control (Caco-2 cells)
Cc1ccc(-c2ccccn2)[c]([Au+][S]C(=S)N(C)C)c1.F[P-](F)(F)(F)(F)F [Complex C1, [Au(tpy)(dmdtc)] PF6]	>32	>32	32	23.03 ± 0.06	>32	32	5.11 ± 0.12	4.5-fold	did not have a significant impact
CN(C)C(=S)[S][Au+][c]1ccccc1-c1ccccn1.F[P-](F)(F)(F)(F)F [Complex C2, [Au(ppy)(dmdtc)]PF6]	32	>32	32	15.69 ± 0.06	32	32	1.79 ± 0.12	8.8-fold	–
CCN(CC)C(=S)[S][Au+][c]1cc(C)ccc1-c1ccccn1.F[P-](F)(F)(F)(F)F [Complex C3, [Au(tpy)(dedtc)]PF6]	>32	>32	32	12.95 ± 0.11	>32	2	1.85 ± 0.36	7.0-fold	–
Cc1ccc2[c](c1)[Au-]1([S]C(N(Cc3ccccc3)Cc3ccccc3)=[S+]1)[n+]1ccccc1-2.F[P-](F)(F)(F)(F)F (stereo not shown) [Complex C5, [Au(tpy)(dbdtc)]PF6]	>32	>32	>32	> 100	32	32	2.07 ± 0.11	–	did not have a significant impact
F[P-](F)(F)(F)(F)F.S=C([S][Au+][c]1ccccc1-c1ccccn1)N(Cc1ccccc1)Cc1ccccc1 [Complex C6, [Au(ppy)(dbdtc)]PF6]	32	>32	>32	24.7 ± 0.36	4	–	4.02 ± 0.3	6.2-fold	did not have a significant impact
[Au(ppy)(dedtc)]PF6 [Complex C4]	>32	>32	32	16.79 ± 0.13	32	32	2.47 ± 0.25	6.8-fold	–
